{"source": "patent US20250325625A1", "about": "“ANTIMICROBIAL ASSOCIATION IN THE TREATMENT OF P. AERUGINOSA BIOFILM-ASSOCIATED INFECTIONS” (Zambon S.P.A., priority 2022, published 2025)", "key": {"P. aeruginosa strains [1]": {"system": "P. aeruginosa strains", "experiment": "Antimicrobial susceptibility (MIC), reference broth microdilution method", "format": "cell-based", "procedure": "Fifteen clinical isolates were from CF, a MDR clinical isolate from Respiratory Tract Infection (RTI) from an Intensive Care Unit (ICU), and the reference strain P. aeruginosa PAO1 (Table 1). Identification was performed by MALDI-TOF MS (Bruker, Shimadzu). Antimicrobial susceptibility was determined using the reference broth microdilution method (CLSIMethods2018). Whole genome sequencing of clinical isolates was performed with the Illumina (San Diego, CA, USA) MiSeq platform, using a 2×150 bp paired-end approach. Raw reads were assembled using SPAdes (Bankevich et al. 2012 J Comput Biol 19(5):455-77.), and draft genomes were used to determine MLST- and O-types at the Oxford PubMLST site (https://pubmlst.org/) (Jolley et al. 2018 Wellcome Open Res 3:124) and at the Center for Genomic Epidemiology site (https://cge.cbs.dtu.dk/services/PAst-1.0/) (ThraneJCM2016), respectively. The complete genome of P. aeruginosa Z154 was obtained by combining results from Illumina with those obtained using the Oxford Nanopore Technologies (Oxford, UK) MinION platform, and de novo assembly was generated using Unicycler v0.4.4."}, "[2]": {"system": "P. aeruginosa Z154 and Z34 preformed biofilms in ASM", "experiment": "Artificial Sputum Medium (ASM) biofilm model", "format": "cell-based", "procedure": "Methods. The potential antibiofilm synergism of NAC/colistin combinations was further investigated using an in vitro ASM biofilm model (Kirchner et al. 2012 Immunology 64:e3857), in order to mimic P. aeruginosa biofilm conditions within the CF mucus. […] In brief, biofilms were grown in ASM in 24-well tissue culture treated plates, for 72 hours at 35° C. under static conditions. Preformed biofilms were then exposed to NAC 8000 mg/L and colistin 64 mg/L, alone and in combination. […] After 24 hours of exposure (i.e., 35° C., static conditions), bacterial biofilms were disrupted by 30 minutes of sonication followed by manual pipetting, and the median cfu per mL (cfu/mL) was determined following the same protocol described for the Nunc-TSP lid assay. Data from this biofilm model were obtained in at least three independent experiments, with at least twelve replicates per condition per experiment."}, "[3]": {"system": "P. aeruginosa Z154 planktonic culture", "experiment": "Time-kill assays against planktonic cultures under aerobic and anaerobic conditions", "format": "cell-based", "conditions": "colistin concentration higher than 0.25 mg/L, data not shown", "procedure": "Methods. Time-kill assays were performed according to CLSI guidelines (CLSI Methods M26A) with the colistin-susceptible strain Z154. Colistin 0.25 mg/L was tested alone and in combination with NAC 8000 mg/L under both aerobic and anaerobic conditions. […] The medium (CAMHB) used to obtain anoxic cultures was placed under anaerobic atmosphere by using AnaeroGen kit (Oxoid) for 3 days prior to use and during the whole experiment. The killing curves were carried out in borosilicate glass bottles with a final volume of 20 mL of CAMHB. At 0, 2, 4, 8 and 24 hours of exposure ten-fold dilutions were plated on TSA, and the number of cfu/mL was determined (detection limit, 17 cfu/mL). Data were obtained from at least four independent experiments, with two replicates per condition per experiment."}, "P. aeruginosa strains [4]": {"system": "P. aeruginosa strains", "experiment": "Antimicrobial susceptibility (MIC), reference broth microdilution method", "format": "cell-based", "conditions": "isolate FC237, in the presence of NAC"}, "[5]": {"system": "P. aeruginosa preformed biofilms", "experiment": "Biofilm susceptibility testing, Nunc-TSP lid system (Calgary biofilm device), preformed biofilms", "format": "cell-based", "conditions": "P. aeruginosa Z154, NAC 8000 mg/L", "procedure": "In the present invention the Calgary biofilm device (also referred to as Nunc-TSP lid system in the experimental part) was the method selected to test the in vitro antibiofilm activity of colistin and NAC, alone or in combination. NAC stock solutions (100 g/L) were prepared immediately before use. NAC powder (Zambon, Bresso, Italy) was dissolved in sterile distilled water, pH was adjusted at 6.5-6.8 with NaOH 10 M and the solution was filtered through a 0.22-μm membrane filter. All experiments were performed in cation-adjusted Mueller-Hinton broth (CAMHB) (Becton Dickinson, Milan, Italy), unless otherwise specified, starting from an appropriately concentrated medium to avoid broth dilution when NAC solution were used.\nColistin Colistin stock solutions (10 mg/L) were prepared immediately before use, by dissolving colistin powder (colistin sulfate, AppliChem, Darmstadt, Germany) in sterile distilled water.\nAssay. Biofilm susceptibility testing was first performed using the Nunc-TSP lid system (Thermo Fisher Scientific, Waltham, MA, USA), as described previously (Harrison J J et al., Nat Protoc, 2010; 5: 1236-54). Briefly, biofilms were grown for 24 hours in CAMHB at 35° C. under static conditions. […] Median cfu per peg (cfu/peg) was then determined by plating 10 μL of appropriate dilutions of the recovery medium onto tryptic soy agar (TSA) (Oxoid) and incubating for 24 hours at 35° C. […]"}, "[6]": {"system": "collection of respiratory pathogens", "conditions": "high NAC concentrations; Landini et al. 2016; cited from earlier work"}}, "note": "Read-outs that look alike come from different tables or passages of the source.", "data": [{"molecule": "colistin [CST]", "values": [{"measurement": "colistin MIC values", "setting": "P. aeruginosa strains [1]; colistin-susceptible strains", "value": "0.001 to 0.002", "unit": "mg/mL"}, {"measurement": "MIC", "setting": "P. aeruginosa strains [1]; strain FC237, non-mucoid, CF, colistin-resistant", "value": 0.512, "unit": "mg/mL"}, {"measurement": "MIC", "setting": "P. aeruginosa strains [1]; strain FC238, non-mucoid, CF, colistin-resistant", "value": 0.008, "unit": "mg/mL"}, {"measurement": "MIC", "setting": "P. aeruginosa strains [1]; strain FZ99, non-mucoid, RTI ICU, colistin-resistant", "value": 0.004, "unit": "mg/mL"}, {"measurement": "MIC", "setting": "P. aeruginosa strains [1]; strain M1, mucoid, CF", "value": 0.002, "unit": "mg/mL"}, {"measurement": "MIC", "setting": "P. aeruginosa strains [1]; strain M4, mucoid, CF", "value": 0.002, "unit": "mg/mL"}, {"measurement": "MIC", "setting": "P. aeruginosa strains [1]; strain M7, mucoid, CF", "value": 0.002, "unit": "mg/mL"}, {"measurement": "MIC", "setting": "P. aeruginosa strains [1]; strain M13, mucoid, CF", "value": 0.001, "unit": "mg/mL"}, {"measurement": "MIC", "setting": "P. aeruginosa strains [1]; strain M19, mucoid, CF", "value": 0.001, "unit": "mg/mL"}, {"measurement": "MIC", "setting": "P. aeruginosa strains [1]; strain M25, mucoid, CF", "value": 0.002, "unit": "mg/mL"}, {"measurement": "MIC", "setting": "P. aeruginosa strains [1]; strain M32, mucoid, CF", "value": 0.002, "unit": "mg/mL"}, {"measurement": "MIC", "setting": "P. aeruginosa strains [1]; strain M42, mucoid, CF", "value": 0.002, "unit": "mg/mL"}, {"measurement": "MIC", "setting": "P. aeruginosa strains [1]; strain PAO1, non-mucoid, wound", "value": 0.002, "unit": "mg/mL"}, {"measurement": "MIC", "setting": "P. aeruginosa strains [1]; strain Z33, non-mucoid, CF", "value": 0.001, "unit": "mg/mL"}, {"measurement": "MIC", "setting": "P. aeruginosa strains [1]; strain Z34, non-mucoid, CF", "value": 0.002, "unit": "mg/mL"}, {"measurement": "MIC", "setting": "P. aeruginosa strains [1]; strain Z35, non-mucoid, CF", "value": 0.001, "unit": "mg/mL"}, {"measurement": "MIC", "setting": "P. aeruginosa strains [1]; strain Z152, mucoid, CF", "value": 0.002, "unit": "mg/mL"}, {"measurement": "MIC", "setting": "P. aeruginosa strains [1]; strain Z154, mucoid, CF", "value": 0.002, "unit": "mg/mL"}, {"measurement": "concentration of colistin which allowed to observe a synergism", "setting": "[2]; ASM model, with NAC 8000 mg/L", "value": 32, "unit": "×MIC"}, {"measurement": "antibiofilm activity of colistin in absence of NAC", "setting": "[2]; higher colistin concentrations (>64 mg/L), data not shown", "value": "eradication of the biofilm cultures"}, {"measurement": "colistin antibiofilm activity", "setting": "[2]; lower colistin concentrations, preliminary experiments, data not shown", "value": "did not show either colistin antibiofilm activity"}, {"measurement": "effect on planktonic cultures", "setting": "[3]", "value": "eradication of the planktonic cultures"}, {"measurement": "colistin MIC reduced in the presence of NAC (fraction of MIC)", "setting": "P. aeruginosa strains [4]", "value": "1/64"}]}, {"molecule": "CC(=O)N[C@@H](CS)C(=O)O", "note": "[NAC, N-acetylcysteine]", "values": [{"measurement": "MIC", "setting": "P. aeruginosa strains [1]; Pseudomonas aeruginosa, PAO1, strain PAO1, non-mucoid, wound, read-out: MIC", "value": "> 64", "unit": "mg/mL"}, {"measurement": "MIC", "setting": "P. aeruginosa strains [1]; Pseudomonas aeruginosa, strain FC237, non-mucoid, CF, colistin-resistant, read-out: MIC", "value": "> 32", "unit": "mg/mL"}, {"measurement": "MIC", "setting": "P. aeruginosa strains [1]; Pseudomonas aeruginosa, strain FC238, non-mucoid, CF, colistin-resistant, read-out: MIC", "value": "> 32", "unit": "mg/mL"}, {"measurement": "MIC", "setting": "P. aeruginosa strains [1]; Pseudomonas aeruginosa, strain FZ99, non-mucoid, RTI ICU, colistin-resistant, read-out: MIC", "value": 64, "unit": "mg/mL"}, {"measurement": "MIC", "setting": "P. aeruginosa strains [1]; Pseudomonas aeruginosa, strain M1, mucoid, CF, read-out: MIC", "value": 16, "unit": "mg/mL"}, {"measurement": "MIC", "setting": "P. aeruginosa strains [1]; Pseudomonas aeruginosa, strain M4, mucoid, CF, read-out: MIC", "value": 32, "unit": "mg/mL"}, {"measurement": "MIC", "setting": "P. aeruginosa strains [1]; Pseudomonas aeruginosa, strain M7, mucoid, CF, read-out: MIC", "value": 64, "unit": "mg/mL"}, {"measurement": "MIC", "setting": "P. aeruginosa strains [1]; Pseudomonas aeruginosa, strain M13, mucoid, CF, read-out: MIC", "value": 32, "unit": "mg/mL"}, {"measurement": "MIC", "setting": "P. aeruginosa strains [1]; Pseudomonas aeruginosa, strain M19, mucoid, CF, read-out: MIC", "value": 64, "unit": "mg/mL"}, {"measurement": "MIC", "setting": "P. aeruginosa strains [1]; Pseudomonas aeruginosa, strain M25, mucoid, CF, read-out: MIC", "value": 16, "unit": "mg/mL"}, {"measurement": "MIC", "setting": "P. aeruginosa strains [1]; Pseudomonas aeruginosa, strain M32, mucoid, CF, read-out: MIC", "value": 16, "unit": "mg/mL"}, {"measurement": "MIC", "setting": "P. aeruginosa strains [1]; Pseudomonas aeruginosa, strain M42, mucoid, CF, read-out: MIC", "value": "> 32", "unit": "mg/mL"}, {"measurement": "MIC", "setting": "P. aeruginosa strains [1]; Pseudomonas aeruginosa, strain Z33, non-mucoid, CF, read-out: MIC", "value": 16, "unit": "mg/mL"}, {"measurement": "MIC", "setting": "P. aeruginosa strains [1]; Pseudomonas aeruginosa, strain Z34, non-mucoid, CF, read-out: MIC", "value": "> 16", "unit": "mg/mL"}, {"measurement": "MIC", "setting": "P. aeruginosa strains [1]; Pseudomonas aeruginosa, strain Z35, non-mucoid, CF, read-out: MIC", "value": 16, "unit": "mg/mL"}, {"measurement": "MIC", "setting": "P. aeruginosa strains [1]; Pseudomonas aeruginosa, strain Z152, mucoid, CF, read-out: MIC", "value": 8, "unit": "mg/mL"}, {"measurement": "MIC", "setting": "P. aeruginosa strains [1]; Pseudomonas aeruginosa, strain Z154, mucoid, CF, read-out: MIC", "value": 16, "unit": "mg/mL"}, {"measurement": "antibiofilm activity of NAC alone", "setting": "[5]", "value": "observed"}, {"measurement": "effect on activity of carbapenems", "setting": "[6]", "value": "compromised the activity of carbapenems"}, {"measurement": "interference with activity of the most commonly used antibiotics", "setting": "[6]", "value": "do not interfere"}, {"measurement": "antibiofilm activity of NAC alone", "setting": "[2]; P. aeruginosa Z154, ASM model, NAC 8000 mg/L", "value": "not observed"}]}]}
